Results reported in US5120752A, “Cyclopropyl derivative lipoxygenase inhibitors” (Abbott Laboratories, priority 1990, dated 1992).

Columns and labels:
leukotriene biosynthesis = experiment: Inhibition of leukotriene biosynthesis in vivo after oral administration, rat peritoneal anaphylaxis model; settings: 100 μmol/kg oral (gavage), 1 h before antigen challenge, read-out: % Inhibition of Leukotrienes at 100 μmol/kg oral dose
Procedure: Inhibition of the biosynthesis of leukotrienes in vivo after oral administration of representative test compounds of this invention was determined using a rat peritoneal anaphylaxis model in a similar manner as that described by Young and coworkers (Young, P. R.; Dyer, R. D.; Carter, G. W. Fed. Proc., Fed. Am. Soc. Exp. Biol. 1985, 44, 1185). In this model rats were injected intraperitoneally (ip) with rabbit antibody to bovine serum albumin (BSA) and three hours later injected ip with BSA to induce an antgen-antibody response. Rats were sacrificed 15 minutes after this challenge and the peritoneal fluids were collected and analyzed for leukotriene levels. Test compounds were administered by gavage one hour prior to the antigen challenge. Percent inhibition values were determined by comparing the treatment group to the mean of the control group. The results of this assay, for representative compounds of the present invention, at an oral dose level of […] are presented in Table 2, and at an oral dose of […] in Table 3.

[1] = system: LTB4 biosynthesis in human whole blood; experiment: Inhibition of calcium ionophore-induced LTB4 biosynthesis in human whole blood; format: cell-based; settings: for IC50: A23187 50 μM, 15 min preincubation, read-out: Inhibition of Leukotriene Biosynthesis IC50
Procedure: Inhibition of leukotriene biosynthesis was evaluated in an assay, involving calcium ionophore-induced LTB4 biosynthesis expressed by human whole blood. Heparinized (20 U/mL) human blood (0.3 mL) was preincubated with test compound or vehicle for 15 min. at 37° C. Eicosanoid biosynthesis was initiated by adding calcium ionophore (A23187) in DMSO to a final concentration of 50 μM and terminated after 30 min. by rapid cooling of the blood in an ice bath and centrifuging at 3° C. for 10 min at 2500×g. The plasma was mixed with 4 volumes of methanol and allowed to stand for at least 30 min. at 3° C. prior to centrifuging at 1800×g for 10 min. The level of LTB4 in aliquots of the methanol-plasma extract was analyzed by radio-immunoassay or enyme-immunoassay techniques.

Row | SMILES | IC50 [1] [nM] | inhibition in vivo at 100 µmol/kg (leukotriene biosynthesis) [%] | inhibition at 0.2 µM ([1]; 0.2 μM, read-out: Inhibition of Leukotriene Biosynthesis (% at 0.2 μM)) [%]
1 | NC(=O)N(O)C[C@@H]1C[C@H]1c1cccc(Oc2cccs2)c1 (relative stereo) [Example 178, N-(1-trans-(2-(3-(2-thienyloxy)phenyl)cyclopropyl)methyl)-N-hydroxyurea] | – | 60 | 64
2 | CC([C@@H]1C[C@H]1c1ccoc1)N(O)C(N)=O (stereo partly drawn) [Example 192, N-(1-trans-(2-(3-furanyl)cyclopropyl)ethyl)-N-hydroxyurea] | 1200 | 71 | –
3 | NC(=O)N(O)C[C@@H]1C[C@H]1c1ccco1 (relative stereo) [Example 198, N-(1-trans-(2-(2-furanyl)cyclopropyl)methyl)-N-hydroxyurea] | 970 | 90 | –
4 | Cc1ccc(Oc2cccc([C@@H]3C[C@H]3C(C)N(O)C(N)=O)c2)cc1 (stereo partly drawn) [Example 180, N-(1-trans-(2-(3-(4-methylphenoxy)phenyl)cyclopropyl)ethyl)-N-hydroxyurea] | 690 | 85 | –

Further lines, with some results ahead:

Row | IC50 [1] [nM] | SMILES | inhibition in vivo at 100 µmol/kg (leukotriene biosynthesis) [%] | inhibition at 0.2 µM ([1]; 0.2 μM, read-out: Inhibition of Leukotriene Biosynthesis (% at 0.2 μM)) [%]
5 | 40 | CCOc1ccc(Oc2cccc([C@@H]3C[C@H]3CN(O)C(N)=O)c2)cc1 (relative stereo) [Example 167, N-(1-trans-(2-(3-(4-ethoxyphenoxy)phenyl)cyclopropyl)methyl)-N-hydroxyurea] | 94 | –
6 | 170 | CCCc1ccc(Oc2cccc([C@@H]3C[C@H]3CN(O)C(N)=O)c2)cc1 (relative stereo) [Example 169, N-(1-trans-(2-(3-(4-propylphenoxy)phenyl)cyclopropyl)methyl)-N-hydroxyurea] | 98 | –
